According to patent publication US11040981B2, “Pyrrolotriazine compounds and methods of inhibiting TAM kinases” (Syros Pharmaceuticals, Inc., priority 2017, dated 2021):

Assays:
AXL = biological target: T1, AXL (Homo sapiens, UniProt P30530); assay: TR-FRET kinase activity assay, AXL; format: biochemical; settings: ATP at Km, 60 minutes
T1 sequence (P30530 26-894): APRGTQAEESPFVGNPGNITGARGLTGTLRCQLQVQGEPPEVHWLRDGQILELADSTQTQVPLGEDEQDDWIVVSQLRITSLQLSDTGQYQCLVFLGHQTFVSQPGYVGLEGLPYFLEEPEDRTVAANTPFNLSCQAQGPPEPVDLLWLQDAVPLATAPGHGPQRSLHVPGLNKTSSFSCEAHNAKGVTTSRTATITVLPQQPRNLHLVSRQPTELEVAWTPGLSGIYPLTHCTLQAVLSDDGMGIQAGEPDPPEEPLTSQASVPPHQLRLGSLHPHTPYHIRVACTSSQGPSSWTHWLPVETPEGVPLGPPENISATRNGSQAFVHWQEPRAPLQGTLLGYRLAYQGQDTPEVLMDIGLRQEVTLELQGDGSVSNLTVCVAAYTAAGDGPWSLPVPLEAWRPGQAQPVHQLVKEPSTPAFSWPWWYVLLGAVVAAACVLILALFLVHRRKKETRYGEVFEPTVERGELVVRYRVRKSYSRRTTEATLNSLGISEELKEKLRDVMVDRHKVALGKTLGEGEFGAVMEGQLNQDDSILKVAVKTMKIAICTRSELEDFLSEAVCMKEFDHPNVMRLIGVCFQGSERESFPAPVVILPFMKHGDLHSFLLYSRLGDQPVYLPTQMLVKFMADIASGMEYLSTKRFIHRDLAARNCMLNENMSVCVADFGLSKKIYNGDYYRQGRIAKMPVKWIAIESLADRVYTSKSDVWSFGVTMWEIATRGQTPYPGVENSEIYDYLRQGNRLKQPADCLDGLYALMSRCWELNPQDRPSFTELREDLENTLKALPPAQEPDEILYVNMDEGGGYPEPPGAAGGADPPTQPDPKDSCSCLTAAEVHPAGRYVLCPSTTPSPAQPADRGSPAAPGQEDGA
How it was run: (§1)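 Enzyme + labelled peptide + cpd premixed; ATP at per-enzyme Km starts rxn. 60 min RT, HEPES pH 7.5/MgCl2/EGTA/Brij 35/DTT buffer. Stop 12.5 mM EDTA, Eu phospho-Ab 30 min dark, TR-FRET read → IC50.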

MERTK = biological target: T2, MERTK (Homo sapiens, UniProt Q12866); assay: TR-FRET kinase activity assay, MERTK; format: biochemical; settings: for IC50: TR-FRET activity assay, ATP at Km, 60 minutes, read-out: Mer IC50; for FLT3/Mer ratio (FLT3 IC50/Mer IC50): ratio of Mer to FLT3: FLT3 IC50/Mer IC50
T2 sequence (Q12866 21-999): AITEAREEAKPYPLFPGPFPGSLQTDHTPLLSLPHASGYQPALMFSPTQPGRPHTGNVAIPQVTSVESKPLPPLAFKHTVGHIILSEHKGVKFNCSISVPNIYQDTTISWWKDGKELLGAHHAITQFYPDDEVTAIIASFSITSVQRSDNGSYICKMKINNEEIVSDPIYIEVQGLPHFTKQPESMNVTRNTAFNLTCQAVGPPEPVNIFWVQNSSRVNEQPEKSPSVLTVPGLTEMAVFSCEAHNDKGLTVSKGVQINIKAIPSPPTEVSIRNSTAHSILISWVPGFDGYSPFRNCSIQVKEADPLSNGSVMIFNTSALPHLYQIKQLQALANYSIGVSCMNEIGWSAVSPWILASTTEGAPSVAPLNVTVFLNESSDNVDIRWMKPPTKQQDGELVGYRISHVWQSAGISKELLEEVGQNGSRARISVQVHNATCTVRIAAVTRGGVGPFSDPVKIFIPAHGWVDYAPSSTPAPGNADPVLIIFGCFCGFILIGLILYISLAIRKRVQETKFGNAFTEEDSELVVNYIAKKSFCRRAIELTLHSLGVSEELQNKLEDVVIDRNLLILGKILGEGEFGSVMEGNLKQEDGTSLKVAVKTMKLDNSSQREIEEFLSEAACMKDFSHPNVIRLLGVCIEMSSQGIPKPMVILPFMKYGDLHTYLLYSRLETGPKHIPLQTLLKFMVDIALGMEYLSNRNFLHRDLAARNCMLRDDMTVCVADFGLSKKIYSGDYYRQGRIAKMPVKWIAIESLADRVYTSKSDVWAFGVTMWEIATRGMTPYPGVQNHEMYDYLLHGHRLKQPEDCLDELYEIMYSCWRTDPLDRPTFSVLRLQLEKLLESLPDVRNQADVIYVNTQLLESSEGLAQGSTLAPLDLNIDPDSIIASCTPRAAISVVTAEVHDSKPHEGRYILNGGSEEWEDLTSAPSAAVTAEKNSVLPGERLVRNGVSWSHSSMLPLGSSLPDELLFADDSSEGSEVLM
How it was run: as §1

SMILES | IC50 (AXL) | IC50 (MERTK) | FLT3/Mer ratio (FLT3 IC50/Mer IC50) (MERTK)
COC[C@H](C)Nc1ncc2c(-c3cnn(C4CC(S(C)(=O)=O)C4)c3)cc([C@H]3CC[C@H](O)CC3)n2n1 (stereo partly drawn) [Compound 287] | ≤ 100 nM | ≤ 100 nM | +++ (“+++” represents a ratio of >100)
C[C@@H](CC(F)(F)F)Nc1ncc2c(-c3cnn(CCS(C)(=O)=O)c3)cc([C@H]3CC[C@H](O)CC3)n2n1 [Compound 288] | ≤ 100 nM | ≤ 100 nM | ++ (“++” represents a ratio of between 10 and 100)
C[C@@H](CC(F)(F)F)Nc1ncc2c(-c3cnn([C@@H]4CCOC4)c3)cc([C@H]3CC[C@H](O)CC3)n2n1 [Compound 289] | ≤ 100 nM | ≤ 100 nM | + (“+” represents a ratio of >2.0 and <10)
C[C@@H](CC(F)(F)F)Nc1ncc2c(-c3cnn([C@H]4CCOC4)c3)cc([C@H]3CC[C@H](O)CC3)n2n1 [Compound 290] | ≤ 100 nM | ≤ 100 nM | ++ (“++” represents a ratio of between 10 and 100)
COC[C@H](C)Nc1ncc2c(-c3cnn(C4CN(CCC(F)(F)F)C4)c3)cc([C@H]3CC[C@H](O)CC3)n2n1 [Compound 291] | ≤ 100 nM | ≤ 100 nM | +++ (“+++” represents a ratio of >100)
COC[C@H](C)Nc1ncc2c(-c3cnn(Cc4nc(C)no4)c3)cc([C@H]3CC[C@H](O)CC3)n2n1 [Compound 292] | ≤ 100 nM | ≤ 100 nM | +++ (“+++” represents a ratio of >100)
COC[C@H](C)Nc1ncc2c(-c3cnn(C4CN(C(=O)C5COC5)C4)c3)cc([C@H]3CC[C@H](O)CC3)n2n1 [Compound 293] | ≤ 100 nM | ≤ 100 nM | +++ (“+++” represents a ratio of >100)
COC[C@H](C)Nc1ncc2c(-c3cnn(C4CN(C(=O)C5(C(F)(F)F)CC5)C4)c3)cc([C@H]3CC[C@H](O)CC3)n2n1 [Compound 294] | ≤ 100 nM | ≤ 100 nM | +++ (“+++” represents a ratio of >100)
CNC(=O)C(C)(C)n1cc(-c2cc([C@H]3CC[C@H](O)CC3)n3nc(N[C@@H](C)COC)ncc23)cn1 [Compound 295] | ≤ 100 nM | ≤ 100 nM | +++ (“+++” represents a ratio of >100)
Cc1nnc(Cn2cc(-c3cc([C@H]4CC[C@H](O)CC4)n4nc(N[C@@H](C)CC(F)(F)F)ncc34)cn2)o1 [Compound 296] | ≤ 100 nM | ≤ 100 nM | ++ (“++” represents a ratio of between 10 and 100)
C[C@@H](CC(F)(F)F)Nc1ncc2c(-c3ccc(S(C)(=O)=O)nc3)cc([C@H]3CC[C@H](O)CC3)n2n1 [Compound 297] | ≤ 100 nM | ≤ 100 nM | ++ (“++” represents a ratio of between 10 and 100)
C[C@@H](CC(F)(F)F)Nc1ncc2c(-c3cncc(C(=O)O)c3)cc([C@H]3CC[C@H](O)CC3)n2n1 [Compound 298] | ≤ 100 nM | ≤ 100 nM | +++ (“+++” represents a ratio of >100)
CC(CC(F)(F)F)Nc1ncc2c(-c3cnc(C(=O)O)nc3)cc(C3CCC(O)CC3)n2n1 (stereo not drawn) [Compound 299] | ≤ 100 nM | ≤ 100 nM | +++ (“+++” represents a ratio of >100)
COC[C@H](C)Nc1ncc2c(-c3ccc(CN4CCOCC4)cc3)cc([C@H]3CC[C@H](NC(C)=O)CC3)n2n1 [Compound 300, N-((trans)-4-(2-(((S)-1-methoxypropan-2-yl)amino)-5-(4-(morpholinomethyl)phenyl)pyrrolo[2,1-f][1,2,4]triazin-7-yl)cyclohexyl)acetamide] | ≤ 100 nM | ≤ 100 nM | +++ (“+++” represents a ratio of >100)
COC[C@H](C)Nc1ncc2c(-c3ccc(CN4CCOCC4)cc3)cc([C@H]3CC[C@H](NS(C)(=O)=O)CC3)n2n1 [Compound 301] | ≤ 100 nM | ≤ 100 nM | +++ (“+++” represents a ratio of >100)
COC[C@H](C)Nc1ncc2c(-c3cnn(C4CN(CC(F)(F)F)C4)c3)cc([C@H]3CC[C@H](O)CC3)n2n1 [Compound 302] | ≤ 100 nM | ≤ 100 nM | +++ (“+++” represents a ratio of >100)
COC[C@H](C)Nc1ncc2c(-c3cnn(CC4CNC(=O)C4)c3)cc([C@H]3CC[C@H](O)CC3)n2n1 (stereo partly drawn) [Compound 303] | ≤ 100 nM | ≤ 100 nM | +++ (“+++” represents a ratio of >100)
CNC(=O)c1cncc(-c2cc([C@H]3CC[C@H](O)CC3)n3nc(N[C@@H](C)CC(F)(F)F)ncc23)c1 [Compound 304] | ≤ 100 nM | ≤ 100 nM | +++ (“+++” represents a ratio of >100)
COC[C@H](C)Nc1ncc2c(-c3cnn(Cc4cnccn4)c3)cc([C@H]3CC[C@H](O)CC3)n2n1 [Compound 305] | ≤ 100 nM | ≤ 100 nM | +++ (“+++” represents a ratio of >100)
COC[C@H](C)Nc1ncc2c(-c3cnn(Cc4cnc(C)cn4)c3)cc([C@H]3CC[C@H](O)CC3)n2n1 [Compound 306] | ≤ 100 nM | ≤ 100 nM | +++ (“+++” represents a ratio of >100)
CNC(=NC#N)N[C@H]1CC[C@H](c2cc(-c3ccc(CN4CCOCC4)cc3)c3cnc(N[C@@H](C)COC)nn32)CC1 [Compound 307] | ≤ 100 nM | ≤ 100 nM | +++ (“+++” represents a ratio of >100)
COC[C@H](C)Nc1ncc2c(-c3cc(C)nc(C)c3)cc([C@H]3CC[C@H](O)CC3)n2n1 [Compound 308] | 100 to 1000 nM | ≤ 100 nM | +++ (“+++” represents a ratio of >100)
Cc1cc(-c2cc([C@H]3CC[C@H](O)CC3)n3nc(N[C@@H](C)C(F)F)ncc23)ccn1 [Compound 309] | ≤ 100 nM | ≤ 100 nM | +++ (“+++” represents a ratio of >100)
